Assay results as given in US9126976B2 (Merck Sharp & Dohme Corp., priority 2011, dated 2015).
Read-outs that look alike come from different tables or passages of the source.

Molecular target: CETP (Homo sapiens (Human), UniProt P11597)
Test: Scintillation Proximity Assay (SPA) for CETP activity
Format: biochemical
Experimental: Protocol: Scintillation Proximity Assay (SPA) for CETP Activity
First, low density lipoprotein (LDL) (Meridian) was biotinylated by incubating LDL with biotin for 1 hour on ice, after which it was dialyzed to remove free biotin. Then compounds at varying concentrations were incubated with 15 nM CETP (reagent production group, In Vitro Pharmacology, MRL Rahway) and 50 ug/ml of the biotinylated LDL in 50 mM HEPES, 150 mM NaCl, pH 7.4, for 1 hour at 37° C. The reaction was started by adding 3H-cholesterol ester high density lipoprotein (HDL) (American Radiochemicals Corp) at a concentration of ˜0.6 nM. The reaction proceeded for 2 hours at 37° C., after which time it was quenched by the addition of 12% acetic acid. PVT streptavadin-coated scintillation proximity beads, which had been brought to room temperature, were then added at a concentration of 4 mg/ml. The assay was then mixed and counted after one half hour in a Microbeta plate reader.

Sequence of CETP (P11597 18-493): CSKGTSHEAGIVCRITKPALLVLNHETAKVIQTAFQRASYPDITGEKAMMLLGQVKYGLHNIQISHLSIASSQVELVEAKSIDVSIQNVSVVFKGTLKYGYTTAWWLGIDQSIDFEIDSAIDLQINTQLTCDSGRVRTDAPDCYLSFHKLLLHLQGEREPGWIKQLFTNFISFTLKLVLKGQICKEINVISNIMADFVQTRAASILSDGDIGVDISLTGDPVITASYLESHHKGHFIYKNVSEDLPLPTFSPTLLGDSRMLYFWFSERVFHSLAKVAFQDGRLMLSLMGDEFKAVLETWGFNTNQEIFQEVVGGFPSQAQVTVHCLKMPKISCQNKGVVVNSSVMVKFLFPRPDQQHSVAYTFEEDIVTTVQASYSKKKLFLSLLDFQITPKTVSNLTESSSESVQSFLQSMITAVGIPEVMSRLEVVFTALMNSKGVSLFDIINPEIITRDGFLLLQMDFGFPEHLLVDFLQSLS

IC50 (read-out: SPA IC50) [nM] | IC50 (Table 1, read-out: IC50) [nM] | SMILES
9 | – | O[C@H](CN1c2ccccc2N(Cc2cccc(OC(F)(F)F)c2)C[C@H]1c1cccc(C(F)(F)F)c1)C(F)(F)F [Example 10]
4 | – | O[C@H](CN1c2ccccc2N(Cc2cccc(OC(F)(F)F)c2)C[C@H]1c1ccc(C(F)(F)F)cc1)C(F)(F)F [Example 11]
27 | – | COC(=O)c1cccc([C@@H]2CN(Cc3cccc(OC(F)(F)F)c3)c3ccccc3N2C[C@@H](O)C(F)(F)F)c1 [Example 16]
15 | – | O[C@H](CN1c2ccccc2N(Cc2cccc(OC(F)(F)F)c2)C[C@H]1c1cccc(OC(F)(F)C(F)F)c1)C(F)(F)F [Example 18]
90 | – | CNC(=O)c1cccc(C2CN(Cc3cccc(OC(F)(F)F)c3)c3ccccc3N2C[C@@H](O)C(F)(F)F)c1 (stereo partly drawn) [Example 19, N-methyl-3-{1-[(R)-3,3,3-trifluoro-2-hydroxypropyl]-4-[3-(trifluoro-methoxy)benzyl]-1,2,3,4-tetrahydroquinoxalin-2-yl}benzamide]
78 | – | COc1cccc([C@@H]2CN(Cc3cccc(OC(F)(F)F)c3)c3ccccc3N2C[C@@H](O)C(F)(F)F)c1 [Example 20]
19 | – | O[C@H](CN1c2ccccc2N(Cc2cccc(OC(F)(F)F)c2)C[C@H]1c1cccc(OC(F)(F)F)c1)C(F)(F)F [Example 21]
258 | – | O[C@H](CN1c2ccccc2N(Cc2cccc(OC(F)(F)F)c2)C[C@H]1c1cccnc1)C(F)(F)F [Example 22]
96 | – | CS(=O)(=O)c1ccc([C@@H]2CN(Cc3cccc(OC(F)(F)F)c3)c3ccccc3N2C[C@@H](O)C(F)(F)F)cc1 [Example 23]
98 | – | N#Cc1cccc([C@@H]2CN(Cc3cccc(OC(F)(F)F)c3)c3ccccc3N2C[C@@H](O)C(F)(F)F)c1 [Example 24]
24 | – | O[C@H](CN1c2ccccc2N(Cc2cccc(OC(F)(F)F)c2)C[C@H]1c1ccc(C(F)(F)F)nc1)C(F)(F)F [Example 26]
30 | – | CN(C)c1ncc([C@@H]2CN(Cc3cccc(OC(F)(F)F)c3)c3ccccc3N2C[C@@H](O)C(F)(F)F)cn1 [Example 27]
390 | – | Cc1cc([C@@H]2CN(Cc3cccc(OC(F)(F)F)c3)c3ccccc3N2C[C@@H](O)C(F)(F)F)n(C)n1 [Example 28]
– | 20 | O[C@H](CN1c2ccccc2N(Cc2cccc(OC(F)(F)F)c2)C[C@H]1c1ccc(Cl)cc1)C(F)(F)F [Example 49]
– | 209 | O[C@H](CN1c2ccccc2N(Cc2cccc(OC(F)(F)F)c2)C[C@H]1c1ccc2c(c1)OCCO2)C(F)(F)F [Example 51]
– | 682 | O[C@H](CN1c2ccccc2N(Cc2cccc(OC(F)(F)F)c2)C[C@H]1c1ccc(F)cc1)C(F)(F)F [Example 52]
– | 56 | Cc1ccc([C@@H]2CN(Cc3cccc(OC(F)(F)F)c3)c3ccccc3N2C[C@@H](O)C(F)(F)F)cc1 [Example 53]
– | 69 | COc1ccc([C@@H]2CN(Cc3cccc(OC(F)(F)F)c3)c3ccccc3N2C[C@@H](O)C(F)(F)F)cc1 [Example 54]

Continued, compound first:

SMILES | IC50 (read-out: SPA IC50) [nM] | IC50 (Table 1, read-out: IC50) [nM]
C[C@@H](c1cccc(C(F)(F)F)c1)N1C[C@@H](c2cccc(C(F)(F)F)c2)N(C[C@@H](O)C(F)(F)F)c2ccccc21 [Example 12] | 28 | –
C[C@H](c1cccc(C(F)(F)F)c1)N1C[C@@H](c2cccc(C(F)(F)F)c2)N(C[C@@H](O)C(F)(F)F)c2ccccc21 [Example 13, (R)-1,1,1-trifluoro-3-((R)-2-(3-(trifluoromethyl)phenyl-4-((R)-1-(3-trifluoromethyl)phenyl)ethyl)-3,4-dihydroquinoxalin-1(2H)-yl)propan-2-ol] | 10 | –
C[C@@H](c1ccccc1)N1C[C@@H](c2cccc(C(F)(F)F)c2)N(C[C@@H](O)C(F)(F)F)c2ccccc21 [Example 14] | 1460 | –
C[C@H](c1ccccc1)N1C[C@@H](c2cccc(C(F)(F)F)c2)N(C[C@@H](O)C(F)(F)F)c2ccccc21 [Example 15] | 14 | –
O[C@H](CN1c2ccccc2N(Cc2cccc(OC(F)(F)F)c2)C[C@H]1c1cc(C(F)(F)F)cc(C(F)(F)F)c1)C(F)(F)F [Example 25] | 770 | –
O[C@H](CN1c2ccccc2N(Cc2cc(F)cc(C(F)(F)F)c2)C[C@H]1c1ccccc1)C(F)(F)F [Example 29, (R)-3-((R)-4-(3-fluoro-5-(trifluoromethyl)benzyl)-2-phenyl-3,4-dihydroquinoxalin-1(2H)-yl)-1,1,1-trifluoropropan-2-ol] | – | 105
O[C@H](CN1c2ccccc2N(Cc2cccc(Cl)c2)C[C@H]1c1ccccc1)C(F)(F)F [Example 30, (R)-3-((R)-4-(3-chlorobenzyl)-2-phenyl-3,4-dihydroquinoxalin-1(2H)-yl)-1,1,1-trifluoropropan-2-ol] | – | 1400
O[C@H](CN1c2ccccc2N(Cc2cc(Cl)cc(Cl)c2)C[C@H]1c1ccccc1)C(F)(F)F [Example 31, (R)-3-((R)-4-(3,5-dichlorobenzyl)-2-phenyl-3,4-dihydroquinoxalin-1(2H)-yl)-1,1,1-trifluoropropan-2-ol] | – | 2760
O[C@H](CN1c2ccccc2N(Cc2cc(Cl)cc(Cl)c2)C[C@H]1c1cccc(C(F)(F)F)c1)C(F)(F)F [Example 32, (R)-3-((R)-4-(3,5-dichlorobenzyl)-2-(3-(trifluoromethyl)phenyl)-3,4-dihydroquinoxalin-1(2H)-yl)-1,1,1-trifluoro propan-2-ol] | – | 12
Cc1ccccc1CN1C[C@@H](c2cccc(C(F)(F)F)c2)N(C[C@@H](O)C(F)(F)F)c2ccccc21 [Example 33, (R)-3-((R)-4-(2-methylbenzyl)-2-(3-(trifluoromethyl)phenyl)-3,4-dihydroquinoxalin-1(2H)-yl)-1,1,1-trifluoro propan-2-ol] | – | 428
O[C@H](CN1c2ccccc2N(Cc2cccc(Cl)c2Cl)C[C@H]1c1cccc(C(F)(F)F)c1)C(F)(F)F [Example 34, (R)-3-((R)-4-(2,3-dichlorobenzyl)-2-(3-(trifluoromethyl)phenyl)-3,4-dihydroquinoxalin-1(2H)-yl)-1,1,1-trifluoro propan-2-ol] | – | 169
O[C@H](CN1c2ccccc2N(Cc2c(Cl)cccc2Cl)C[C@H]1c1cccc(C(F)(F)F)c1)C(F)(F)F [Example 35, (R)-3-((R)-4-(2,6-dichlorobenzyl)-2-(3-(trifluoromethyl)phenyl)-3,4-dihydroquinoxalin-1(2H)-yl)-1,1,1-trifluoro propan-2-ol] | – | 1160
O[C@H](CN1c2ccccc2N(CC2CCCCC2)C[C@H]1c1cccc(C(F)(F)F)c1)C(F)(F)F [Example 37, (R)-3-((R)-4-(cyclohexylmethyl)-2-(3-(trifluoromethyl)phenyl)-3,4-dihydroquinoxalin-1(2H)-yl)-1,1,1-trifluoro propan-2-ol] | – | 1270
O[C@H](CN1c2ccccc2N(Cc2ccsc2)C[C@H]1c1cccc(C(F)(F)F)c1)C(F)(F)F [Example 38, (R)-3-((R)-4-(thiophenyl-3-ylmethyl)-2-(3-(trifluoromethyl)phenyl)3,4-dihydroquinoxalin-1(2H)-yl)-1,1,1-trifluoropropan-2-ol] | – | 461
O[C@H](CN1c2ccccc2N(Cc2ccc(Cl)cc2)C[C@H]1c1cccc(C(F)(F)F)c1)C(F)(F)F [Example 39, (2R)-3-(4-(4-chlorobenzyl)-2-(3-(trifluoromethyl)phenyl)-3,4-dihydroquinoxalin-1(2H)-yl)-1,1,1-trifluoropropan-2-ol] | – | 548
O[C@H](CN1c2ccccc2N(Cc2cccc(C(F)(F)F)c2)C[C@H]1c1cccc(C(F)(F)F)c1)C(F)(F)F [Example 40, (2R)-1,1,1-trifluoro-3-(4-(3-(trifluoromethyl)benzyl)-2-(3-(trifluoromethyl)phenyl)-3,4-dihydroquinoxalin-1(2H)-yl)propan-2-ol] | – | 57.1
O[C@H](CN1c2ccccc2N(Cc2cc(F)cc(C(F)(F)F)c2)C[C@H]1c1cccc(C(F)(F)F)c1)C(F)(F)F [Example 41, (2R)-1,1,1-trifluoro-3-(4-(3-fluoro-5-(trifluoromethyl)benzyl)-2-(3-(trifluoromethyl)phenyl)-3,4-dihydroquinoxalin-1(2H)-yl)propan-2-ol] | – | 45.2
CCc1cc(CN2C[C@@H](c3cccc(C(F)(F)F)c3)N(C[C@@H](O)C(F)(F)F)c3ccccc32)ccc1Cl [Example 42, (2R)-3-(4-(4-chloro-3-ethylbenzyl)-2-(3-(trifluoromethyl)phenyl)-3,4-dihydroquinoxalin-1(2H)-yl)-1,1,1-trifluoropropan-2-ol] | – | 45.1
Cc1ccc(C(F)(F)F)cc1CN1C[C@@H](c2cccc(C(F)(F)F)c2)N(C[C@@H](O)C(F)(F)F)c2ccccc21 [Example 43, (2R)-1,1,1-trifluoro-3-(4-(2-methyl-5-(trifluoromethyl)benzyl)-2-(3-(trifluoromethyl)phenyl)-3,4-dihydroquinoxalin-1(2H)-yl)propan-2-ol] | – | 270
Cc1cccc(CN2C[C@@H](c3cccc(C(F)(F)F)c3)N(C[C@@H](O)C(F)(F)F)c3ccccc32)n1 [Example 44] | – | 460
COc1cc2ccc([C@@H]3CN(Cc4cccc(OC(F)(F)F)c4)c4ccccc4N3C[C@@H](O)C(F)(F)F)cc2cc1OC [Example 50] | – | 193
O[C@H](CN1c2ccccc2N(C2C=Cc3ccccc32)CC1c1cccc(OC(F)(F)C(F)F)c1)C(F)(F)F (stereo partly drawn) [Example 56, (2R)-3(4-(1H-inden-1-yl))-2-(3-(1,1,2,2,- tetrafluoroethoxy)phenyl)-3,4-dihydroquinoxalin-1(2H)-yl-1,1,1-trifluoropropan-2-ol] | – | 11
